Measurements taken from ChEMBL document CHEMBL1135706, “Design and synthesis of motilin antagonists derived from the [1-4] fragment of porcine motilin” (J Med Chem, 2002).
pEC50, pIC50: −log10 of the molar value. Values joined by “and” are separate entries in the source; they are usually repeats but may differ in a detail not shown here. Equal values may be shown once. Bridge positions count the residues as written; N and C are the ends. Square brackets hold non-standard residues; d marks the D form. Peptide text beside a SMILES is read from it. * marks the point of attachment. Tyr(3-tBu) = CC(C)(C)c1cc(C[C@H](N)C(=O)O)ccc1O; Ahx = NCCCCCC(=O)O; GABA = NCCCC(=O)O; βAla = NCCC(=O)O; tBu = CC(C)(C)*

Legend:
Motilin receptor = Motilin receptor (Oryctolagus cuniculus, UniProt A5A4K8); assay: Inhibition of the motilin receptor (MTL-R)
Oryctolagus cuniculus [1] = organism: Oryctolagus cuniculus; assay: pA2 (Contractile potency) is the negative logarithm of the molar concentration of antagonist causing a 2-fold shift to the right of the concentration response curve for motilin; format: functional, organism-based; details: read-out: pA2 (converted)
Oryctolagus cuniculus [2] = organism: Oryctolagus cuniculus; assay: Concentration of compound causing 50% inhibition of the smooth muscle contractile activity; format: functional, organism-based; details: Muscle tissue

Sequence of Motilin receptor (A5A4K8 whole entry): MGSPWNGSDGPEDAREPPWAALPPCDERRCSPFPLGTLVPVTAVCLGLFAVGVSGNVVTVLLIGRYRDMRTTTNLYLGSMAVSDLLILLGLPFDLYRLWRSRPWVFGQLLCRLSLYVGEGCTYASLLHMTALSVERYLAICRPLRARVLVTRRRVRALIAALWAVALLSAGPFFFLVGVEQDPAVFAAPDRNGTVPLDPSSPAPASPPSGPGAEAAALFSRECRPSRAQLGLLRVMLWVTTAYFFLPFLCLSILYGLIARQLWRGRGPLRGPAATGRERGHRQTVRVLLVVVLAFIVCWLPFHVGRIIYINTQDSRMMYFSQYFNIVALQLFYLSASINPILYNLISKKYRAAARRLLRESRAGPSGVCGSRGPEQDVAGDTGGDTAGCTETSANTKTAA

pIC50 (Motilin receptor) | pEC50 (Oryctolagus cuniculus [2]) | Compound | Kb (Oryctolagus cuniculus [1]) [nM]
5.74 | < 4.00 | CC(C)(C)c1cc(C[C@@H]2NC(=O)[C@@H](NC(=O)C(N)Cc3ccccc3)CCCCNC(=O)CCNC2=O)ccc1O (single isomer, unassigned) | 2000
5.51 | < 4.00 | CC(C)(C)c1cc(C[C@H]2NC(=O)[C@@H](NC(=O)[C@@H](N)Cc3ccccc3)CCCCNC(=O)CCNC2=O)ccc1O | 5370
5.68 | < 4.00 | CC(C)(C)c1cc(CC2NC(=O)[C@@H](NC(=O)C(N)Cc3ccccc3)CCCCNC(=O)CCNC2=O)ccc1O (stereo not given in full) | 2190

The next lines start with the compound.

Compound | pIC50 (Motilin receptor) | pEC50 (Oryctolagus cuniculus [2]) | Kb (Oryctolagus cuniculus [1]) [nM]
CC(C)(C)c1cc(C[C@@H]2NC(=O)[C@@H](NC(=O)[C@@H](N)Cc3ccccc3)CCCCNC(=O)CCCNC2=O)ccc1O (H-FK[Tyr(3-tBu)][GABA]; lactam 2-C) | 7.48 and 7.23 | < 4.00 | 34.7
CC(C)(C)c1cc(C[C@@H]2NC(=O)[C@@H](NC(=O)[C@@H](N)Cc3ccccc3)CCCCNC(=O)CCCCCNC2=O)ccc1O (H-FK[Tyr(3-tBu)][Ahx]; lactam 2-C) | 7.77 and 7.19 | < 4.00 | 83.2
CC(C)(C)c1cc(C[C@@H]2NC(=O)[C@@H](NC(=O)[C@@H](N)Cc3ccccc3)CCCCNC(=O)CCNC2=O)cc(C(C)(C)C)c1O | 6.34 | < 5.00 | 
CC(C)(C)c1cc(C[C@@H]2NC(=O)[C@@H](NC(=O)[C@@H](N)Cc3ccccc3)CCCCNC(=O)CCNC2=O)ccc1O | 8.00 | < 4.00 | 42.7
CC(C)(C)c1cc(C[C@@H]2NC(=O)[C@@H](NC(=O)[C@@H](N)Cc3ccccc3)CCCCNC(=O)CNC2=O)ccc1O (H-FK[Tyr(3-tBu)]G; lactam 2-C) | 8.15 and 7.48 | < 4.00 | 46.8
CCC(C)Oc1ccc(C[C@@H]2NC(=O)[C@@H](NC(=O)[C@@H](N)Cc3ccccc3)CCCCNC(=O)CCNC2=O)cc1 (stereo not given in full) | 6.32 |  | 
CC(C)(C)Oc1ccc(C[C@@H]2NC(=O)[C@@H](NC(=O)[C@@H](N)Cc3ccccc3)CCCCNC(=O)CCNC2=O)cc1 (H-FKY(tBu)[βAla]; lactam 2-C) | 5.12 | < 4.00 | 120000
N[C@@H](Cc1ccccc1)C(=O)N[C@H]1CCCCNC(=O)CCNC(=O)[C@H](Cc2ccc(O)cc2)NC1=O (H-FKY[βAla]; lactam 2-C) | 4.60 and 4.38 | < 4.00 | 89100
